This note sets out measurements from US9999620B2, “CaMKK-β as a target for treating cancer” (Duke University, priority 2010, dated 2018).

SMILES strings stand for the structures.

Experiment [1] concerns LNCaP cells. The experiment in a line: Matrigel extracellular matrix invasion assay. In kind it is cell-based, human. Particulars: 1 h +/-30 mM STO-609, overnight +/-10 nM R1881. The method, then:
FIG. 7. CaMKKβ activity in the androgen-mediated migration and invasion of prostate cancer cells. A, LNCaP cells were plated in 96-well plates and grown for 3 d. […] On d 10, cells were lysed and the relative number of cells was measured with the fluorescent DNA binding dye FluoReporter Blue. Each sample was performed in triplicate, and results from a representative experiment are shown. […] Cells were then dissociated and reseeded into the top chamber for a Boyden migration or Matrigel extracellular matrix invasion assay. Fresh medium with the corresponding treatments was added to the top and bottom chambers while either no chemoattractant or 5% FBS (serum) was added to the bottom chamber. After 16 h, migrated cells were fixed, stained and counted in three different microscopic fields and added together. […] C top, LNCaP cells were transfected with indicated siRNAs. […] D right, LNCaP cells stably expressing either GAL4 (control) or CaMKKβ were subjected to a migration assay as described in B using +/−5% FBS as chemoattractant. The results are expressed as mean+SE (n=3). *, significant changes from LNCaP-GAL4 cells. D left, western blot confirming CaMKKβ […]expression. Migration and invasion assays. Boyden dual chamber migration assays were performed as previously described (4). […]

Experiment [2] deals with LNCaP cells. The experiment in a line: Boyden dual chamber migration assay. The experiment is classed as cell-based, human. Particulars: 1 h +/-30 mM STO-609, overnight +/-10 nM R1881, 16 h migration, 5% FBS chemoattractant. The method, then:
FIG. 7. CaMKKβ activity in the androgen-mediated migration and invasion of prostate cancer cells. A, LNCaP cells were plated in 96-well plates and grown for 3 d. […] On d 10, cells were lysed and the relative number of cells was measured with the fluorescent DNA binding dye FluoReporter Blue. Each sample was performed in triplicate, and results from a representative experiment are shown. […] Cells were then dissociated and reseeded into the top chamber for a Boyden migration or Matrigel extracellular matrix invasion assay. Fresh medium with the corresponding treatments was added to the top and bottom chambers while either no chemoattractant or 5% FBS (serum) was added to the bottom chamber. After 16 h, migrated cells were fixed, stained and counted in three different microscopic fields and added together. […] C top, LNCaP cells were transfected with indicated siRNAs. […] D right, LNCaP cells stably expressing either GAL4 (control) or CaMKKβ were subjected to a migration assay as described in B using +/-5% FBS as chemoattractant. The results are expressed as mean+SE (n=3). *, significant changes from LNCaP-GAL4 cells. D left, western blot confirming CaMKKβ […]expression. FIG. 11. Androgen-mediated migration occurs through a CaMKKβ-AMPK-dependent pathway. […] Results are expressed as fold induction/phosphorylation over double vehicle-treated cells+SE (n=3). *, significant changes from vehicle-treated cells. […] Results are expressed as fold induction/phosphorylation over LNCaP-GAL4 vehicle-treated cells+SE (n=3). *, significant changes from LNCaP-GAL4 vehicle-treated cells. […] The results are expressed as mean±SE (n=2). *, P<0.05 indicates significant changes from double vehicle-treated cells. ^#, P<0.05 indicates significant decreases from vehicle (no compound C)-treated cells. […] ACC is a direct target of AMPK and thus, was used as a readout of AMPK catalytic activity. […] Results are expressed as fold induction/phosphorylation over double vehicle-treated cells+SE (n=2). *, P<0.05 indicates significant changes from double vehicle-treated cells. […]

For the compound `O=C(O)c1ccc2c3c1cccc3c(=O)n1c3ccccc3nc21` [STO-609], in experiment [1], the “androgen-mediated invasion through Matrigel extracellular matrix” value is on record as “inhibited androgen-mediated invasion”. Further, in experiment [2], the androgen-mediated migration entry is “blocked the androgen-mediated migration”.
